What was measured:
[1] = Body weight and adverse effects in xenograft study; type: in vivo, nude mice (BALB/c-nu); conditions: 25 and 50 mg/kg orally daily for 16 days
Description: All procedures were performed in accordance with the Laboratory Animals Welfare Act, the Guide for the Care and Use of Laboratory Animals and the Guidelines and Policies. The rodent experiment was approved by IACUC (Institutional Animal Care and Use Committee) in the Experimental Animal Ethics Committee of West China Hospital (Approval No. 2021672A). 48 female nude mice (BALB/c-nu, 5 weeks, 15–18 g, purchased from Beijing HFK Bio-Technology Co., LTD) were acclimatized for one week in an SPF-grade animal facility (ventilated, 20–25 °C, 50–60% humidity). […] When the tumor volume reached approximately 100 mm^3 (V = L × W^2/2), the mice were randomly divided into six groups (n = 8 per group): (1) Control group (normal saline); (2) 25 mg/kg SKLB-D18-treated group; (3) 50 mg/kg SKLB-D18-treated group; (4) 50 mg/kg BVD-523-treated group; (5) 50 mg/kg XMD8-92-treated group; (6) BVD-523 (50 mg/kg) and XMD8-92 (50 mg/kg) combined treatment group. Drugs were freshly prepared with 5% DMSO, 10% Solutol HS-15, and 85% normal saline on the day of administration. Intragastric administration occurred once daily at the same time for 16 consecutive days. And the body weight and tumor volume of mice were measured every three days. After the administration period, all nude mice were euthanized by cervical dislocation the next day. […]

[2] = biological target: T1, SBK1(h) (Homo sapiens, UniProt Q52WX2); test: Kinase profiling; type: biochemical
T1 construct: purchased Eurofins Cerep SA (KinaseProfiler)
Description: (§1) 380 kinases inhibitory activities of SKLB-D18 were conducted by Eurofins Cerep SA. The result was illustrated by kinase tree (http://www.kinhub.org/kinmap/).

[3] = biological target: T2, Abl(h) (Homo sapiens, UniProt P00519); test: Kinase profiling; type: biochemical
T2 construct: purchased Eurofins Cerep SA (KinaseProfiler)
Description: as §1

[4] = biological target: T3, TrkC(h) (Homo sapiens, UniProt Q16288); test: Kinase profiling; type: biochemical
T3 construct: purchased Eurofins Cerep SA (KinaseProfiler)
Description: as §1

[5] = biological target: T4, EGFR(h) (Homo sapiens, UniProt P00533); test: Kinase profiling; type: biochemical
T4 construct: purchased Eurofins Cerep SA (KinaseProfiler)
Description: as §1

[6] = biological target: T5, NDR1(h) (Homo sapiens, UniProt Q15208); test: Kinase profiling; type: biochemical
T5 construct: purchased Eurofins Cerep SA (KinaseProfiler)
Description: as §1

[7] = biological target: T6, MST2(h) (Homo sapiens, UniProt Q13188); test: Kinase profiling; type: biochemical
T6 construct: purchased Eurofins Cerep SA (KinaseProfiler)
Description: as §1

[8] = biological target: T7, VRK1(h) (Homo sapiens, UniProt Q99986); test: Kinase profiling; type: biochemical
T7 construct: purchased Eurofins Cerep SA (KinaseProfiler)
Description: as §1

[9] = biological target: T8, Pim-2(h) (Homo sapiens, UniProt Q9P1W9); test: Kinase profiling; type: biochemical
T8 construct: purchased Eurofins Cerep SA (KinaseProfiler)
Description: as §1

[10] = biological target: T9, MAP4K5(h) (Homo sapiens, UniProt Q9Y4K4); test: Kinase profiling; type: biochemical
T9 construct: purchased Eurofins Cerep SA (KinaseProfiler)
Description: as §1

[11] = biological target: T10, IRR(h) (Homo sapiens, UniProt P14616); test: Kinase profiling; type: biochemical
T10 construct: purchased Eurofins Cerep SA (KinaseProfiler)
Description: as §1

[12] = biological target: T11, HIPK2(h) (Homo sapiens, UniProt Q9H2X6); test: Kinase profiling; type: biochemical
T11 construct: purchased Eurofins Cerep SA (KinaseProfiler)
Description: as §1

[13] = biological target: T12, MSK1(h) (Homo sapiens, UniProt O75582); test: Kinase profiling; type: biochemical
T12 construct: purchased Eurofins Cerep SA (KinaseProfiler)
Description: as §1

[14] = biological target: T13, Hck(h) (Homo sapiens, UniProt P08631); test: Kinase profiling; type: biochemical
T13 construct: purchased Eurofins Cerep SA (KinaseProfiler)
Description: as §1

[15] = biological target: T14, PKCδ(h) (Homo sapiens, UniProt Q05655); test: Kinase profiling; type: biochemical
T14 construct: purchased Eurofins Cerep SA (KinaseProfiler)
Description: as §1

[16] = biological target: T15, ALK(h) (Homo sapiens, UniProt Q9UM73); test: Kinase profiling; type: biochemical
T15 construct: purchased Eurofins Cerep SA (KinaseProfiler)
Description: as §1

[17] = biological target: T16, PKG1α(h) (Homo sapiens, UniProt Q13976); test: Kinase profiling; type: biochemical
T16 construct: purchased Eurofins Cerep SA (KinaseProfiler)
Description: as §1

[18] = biological target: T17, BIKe(h) (Homo sapiens, UniProt Q9NSY1); test: Kinase profiling; type: biochemical
T17 construct: purchased Eurofins Cerep SA (KinaseProfiler)
Description: as §1

[19] = biological target: T18, PKBγ(h) (Homo sapiens, UniProt Q9Y243); test: Kinase profiling; type: biochemical
T18 construct: purchased Eurofins Cerep SA (KinaseProfiler)
Description: as §1

[20] = biological target: T19, IKKε(h) (Homo sapiens, UniProt Q14164); test: Kinase profiling; type: biochemical
T19 construct: purchased Eurofins Cerep SA (KinaseProfiler)
Description: as §1

[21] = biological target: T20, MLK3(h) (Homo sapiens, UniProt Q16584); test: Kinase profiling; type: biochemical
T20 construct: purchased Eurofins Cerep SA (KinaseProfiler)
Description: as §1

[22] = biological target: T21, IRE1(h) (Homo sapiens, UniProt O75460); test: Kinase profiling; type: biochemical
T21 construct: purchased Eurofins Cerep SA (KinaseProfiler)
Description: as §1

[23] = biological target: T22, PI3KC2g(h) (Homo sapiens, UniProt O75747); test: Kinase profiling; type: biochemical
T22 construct: purchased Eurofins Cerep SA (KinaseProfiler)
Description: as §1

[24] = biological target: T23, PhKγ1(h) (Homo sapiens, UniProt Q16816); test: Kinase profiling; type: biochemical
T23 construct: purchased Eurofins Cerep SA (KinaseProfiler)
Description: as §1

[25] = biological target: T24, CDK2/cyclinA(h) (Homo sapiens, UniProt P24941); test: Kinase profiling; type: biochemical
T24 construct: purchased Eurofins Cerep SA (KinaseProfiler)
Description: as §1

[26] = biological target: T25, DCAMKL2(h) (Homo sapiens, UniProt Q8N568); test: Kinase profiling; type: biochemical
T25 construct: purchased Eurofins Cerep SA (KinaseProfiler)
Description: as §1

[27] = biological target: T26, PAK3(h) (Homo sapiens, UniProt O75914); test: Kinase profiling; type: biochemical
T26 construct: purchased Eurofins Cerep SA (KinaseProfiler)
Description: as §1

[28] = biological target: T27, ULK2(h) (Homo sapiens, UniProt Q8IYT8); test: Kinase profiling; type: biochemical
T27 construct: purchased Eurofins Cerep SA (KinaseProfiler)
Description: as §1

[29] = biological target: T28, MLCK(h) (Homo sapiens, UniProt Q9H1R3); test: Kinase profiling; type: biochemical
T28 construct: purchased Eurofins Cerep SA (KinaseProfiler)
Description: as §1

[30] = biological target: T29, eEF-2K(h) (Homo sapiens, UniProt O00418); test: Kinase profiling; type: biochemical
T29 construct: purchased Eurofins Cerep SA (KinaseProfiler)
Description: as §1

[31] = biological target: T30, CK2α2(h) (Homo sapiens, UniProt P19784); test: Kinase profiling; type: biochemical
T30 construct: purchased Eurofins Cerep SA (KinaseProfiler)
Description: as §1

[32] = biological target: T31, WNK3(h) (Homo sapiens, UniProt Q9BYP7); test: Kinase profiling; type: biochemical
T31 construct: purchased Eurofins Cerep SA (KinaseProfiler)
Description: as §1

T2 sequence (P00519 whole entry): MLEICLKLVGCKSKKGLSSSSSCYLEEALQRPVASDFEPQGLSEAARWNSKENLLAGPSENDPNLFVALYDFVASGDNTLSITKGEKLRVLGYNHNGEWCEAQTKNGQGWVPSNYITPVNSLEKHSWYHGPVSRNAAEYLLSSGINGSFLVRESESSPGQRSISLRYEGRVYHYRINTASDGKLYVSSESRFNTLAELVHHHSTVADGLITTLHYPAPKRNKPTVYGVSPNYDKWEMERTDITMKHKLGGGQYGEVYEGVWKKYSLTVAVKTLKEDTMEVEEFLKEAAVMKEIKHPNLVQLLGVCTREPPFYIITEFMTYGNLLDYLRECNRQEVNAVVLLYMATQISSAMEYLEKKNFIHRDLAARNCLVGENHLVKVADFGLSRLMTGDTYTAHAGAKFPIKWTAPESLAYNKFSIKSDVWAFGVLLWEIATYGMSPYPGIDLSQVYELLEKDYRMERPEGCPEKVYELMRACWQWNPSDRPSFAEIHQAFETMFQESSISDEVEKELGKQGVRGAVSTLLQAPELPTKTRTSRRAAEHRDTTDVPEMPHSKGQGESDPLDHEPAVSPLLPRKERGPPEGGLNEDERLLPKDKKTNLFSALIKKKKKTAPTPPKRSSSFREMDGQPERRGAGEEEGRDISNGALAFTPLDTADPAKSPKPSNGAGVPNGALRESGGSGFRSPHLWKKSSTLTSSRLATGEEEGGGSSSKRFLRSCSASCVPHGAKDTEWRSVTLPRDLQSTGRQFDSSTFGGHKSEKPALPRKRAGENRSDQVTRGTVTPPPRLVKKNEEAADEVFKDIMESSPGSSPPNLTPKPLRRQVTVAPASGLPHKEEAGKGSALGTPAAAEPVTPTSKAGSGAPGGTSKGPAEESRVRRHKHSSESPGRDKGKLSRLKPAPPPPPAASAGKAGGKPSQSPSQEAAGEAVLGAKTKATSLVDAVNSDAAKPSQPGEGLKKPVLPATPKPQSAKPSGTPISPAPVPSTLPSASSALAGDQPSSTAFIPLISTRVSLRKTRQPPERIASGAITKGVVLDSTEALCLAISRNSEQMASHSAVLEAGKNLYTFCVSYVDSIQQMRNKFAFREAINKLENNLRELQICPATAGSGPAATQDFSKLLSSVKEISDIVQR
T16 sequence (Q13976 whole entry): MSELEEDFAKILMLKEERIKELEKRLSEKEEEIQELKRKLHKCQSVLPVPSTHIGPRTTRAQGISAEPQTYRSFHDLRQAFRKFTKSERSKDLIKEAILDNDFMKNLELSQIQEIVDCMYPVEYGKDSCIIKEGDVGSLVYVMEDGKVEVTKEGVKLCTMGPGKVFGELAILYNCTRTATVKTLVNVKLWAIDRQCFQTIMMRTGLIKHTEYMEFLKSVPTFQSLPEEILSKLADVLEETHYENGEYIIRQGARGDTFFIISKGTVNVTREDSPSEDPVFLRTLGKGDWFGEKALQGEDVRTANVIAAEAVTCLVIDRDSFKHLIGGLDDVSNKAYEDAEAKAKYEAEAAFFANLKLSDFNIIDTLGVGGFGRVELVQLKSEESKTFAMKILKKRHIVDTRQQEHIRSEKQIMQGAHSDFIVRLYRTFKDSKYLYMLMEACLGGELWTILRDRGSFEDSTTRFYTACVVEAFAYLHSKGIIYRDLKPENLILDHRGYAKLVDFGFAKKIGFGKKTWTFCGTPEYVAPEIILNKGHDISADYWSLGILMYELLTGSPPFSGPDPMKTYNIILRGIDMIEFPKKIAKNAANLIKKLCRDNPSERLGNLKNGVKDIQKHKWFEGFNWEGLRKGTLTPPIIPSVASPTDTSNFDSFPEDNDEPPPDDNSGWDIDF
T5 sequence (Q15208 whole entry): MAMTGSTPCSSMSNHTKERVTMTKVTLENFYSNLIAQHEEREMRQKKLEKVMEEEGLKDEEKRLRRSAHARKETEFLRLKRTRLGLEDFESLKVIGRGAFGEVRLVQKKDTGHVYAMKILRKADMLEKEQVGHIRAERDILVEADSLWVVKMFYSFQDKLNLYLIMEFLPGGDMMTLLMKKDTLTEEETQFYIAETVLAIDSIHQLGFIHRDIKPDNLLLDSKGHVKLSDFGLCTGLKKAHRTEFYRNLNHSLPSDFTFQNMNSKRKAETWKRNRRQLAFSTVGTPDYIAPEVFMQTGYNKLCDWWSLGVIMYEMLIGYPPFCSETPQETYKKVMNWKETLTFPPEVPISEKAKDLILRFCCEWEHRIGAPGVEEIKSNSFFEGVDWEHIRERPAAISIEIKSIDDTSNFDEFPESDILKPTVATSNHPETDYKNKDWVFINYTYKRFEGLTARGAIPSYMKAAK
T8 sequence (Q9P1W9 whole entry): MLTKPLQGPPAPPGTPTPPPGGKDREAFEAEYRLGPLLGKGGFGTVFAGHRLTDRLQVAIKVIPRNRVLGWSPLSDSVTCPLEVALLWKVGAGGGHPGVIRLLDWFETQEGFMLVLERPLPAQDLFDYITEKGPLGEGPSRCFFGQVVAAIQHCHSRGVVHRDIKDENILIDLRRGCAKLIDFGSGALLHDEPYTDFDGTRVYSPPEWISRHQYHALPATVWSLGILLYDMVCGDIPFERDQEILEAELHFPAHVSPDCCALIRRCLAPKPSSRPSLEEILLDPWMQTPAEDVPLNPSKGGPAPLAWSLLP
T23 sequence (Q16816 whole entry): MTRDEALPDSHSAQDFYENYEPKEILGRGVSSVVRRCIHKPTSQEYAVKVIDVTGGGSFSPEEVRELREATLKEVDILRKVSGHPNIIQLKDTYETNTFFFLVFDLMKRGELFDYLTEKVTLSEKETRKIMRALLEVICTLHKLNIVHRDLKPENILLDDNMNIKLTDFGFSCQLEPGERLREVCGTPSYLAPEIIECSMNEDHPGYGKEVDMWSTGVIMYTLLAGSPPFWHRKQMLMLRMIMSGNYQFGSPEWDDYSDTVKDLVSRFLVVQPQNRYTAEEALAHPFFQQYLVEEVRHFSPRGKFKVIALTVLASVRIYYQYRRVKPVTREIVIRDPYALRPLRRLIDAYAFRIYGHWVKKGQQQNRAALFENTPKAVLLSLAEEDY
T30 sequence (P19784 whole entry): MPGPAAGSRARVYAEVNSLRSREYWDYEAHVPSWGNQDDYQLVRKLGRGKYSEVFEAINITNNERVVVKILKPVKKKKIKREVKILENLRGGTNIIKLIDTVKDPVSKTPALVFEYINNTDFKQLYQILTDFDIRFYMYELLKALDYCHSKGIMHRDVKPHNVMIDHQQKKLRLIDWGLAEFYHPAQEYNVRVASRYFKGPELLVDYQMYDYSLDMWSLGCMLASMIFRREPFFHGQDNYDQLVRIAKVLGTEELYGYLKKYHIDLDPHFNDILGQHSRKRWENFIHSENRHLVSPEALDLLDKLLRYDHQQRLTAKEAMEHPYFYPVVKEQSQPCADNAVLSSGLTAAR
T14 sequence (Q05655 whole entry): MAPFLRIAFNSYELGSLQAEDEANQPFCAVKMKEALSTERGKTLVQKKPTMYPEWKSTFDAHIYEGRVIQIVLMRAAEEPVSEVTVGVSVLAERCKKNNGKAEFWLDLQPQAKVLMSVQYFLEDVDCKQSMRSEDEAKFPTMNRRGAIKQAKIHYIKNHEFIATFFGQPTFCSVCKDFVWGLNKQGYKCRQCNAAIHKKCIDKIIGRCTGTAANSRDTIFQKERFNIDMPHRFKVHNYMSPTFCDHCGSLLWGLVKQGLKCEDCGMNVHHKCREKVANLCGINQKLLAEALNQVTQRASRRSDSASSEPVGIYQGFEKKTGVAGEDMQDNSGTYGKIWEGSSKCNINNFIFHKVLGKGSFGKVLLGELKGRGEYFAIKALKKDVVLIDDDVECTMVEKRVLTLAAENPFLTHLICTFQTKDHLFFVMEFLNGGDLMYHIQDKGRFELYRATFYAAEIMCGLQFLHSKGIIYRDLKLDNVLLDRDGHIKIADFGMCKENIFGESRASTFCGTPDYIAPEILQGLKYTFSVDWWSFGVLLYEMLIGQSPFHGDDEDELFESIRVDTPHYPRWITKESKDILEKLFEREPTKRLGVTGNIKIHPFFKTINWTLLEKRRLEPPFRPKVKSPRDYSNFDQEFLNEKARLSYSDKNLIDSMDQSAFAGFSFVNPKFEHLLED
T25 sequence (Q8N568 whole entry): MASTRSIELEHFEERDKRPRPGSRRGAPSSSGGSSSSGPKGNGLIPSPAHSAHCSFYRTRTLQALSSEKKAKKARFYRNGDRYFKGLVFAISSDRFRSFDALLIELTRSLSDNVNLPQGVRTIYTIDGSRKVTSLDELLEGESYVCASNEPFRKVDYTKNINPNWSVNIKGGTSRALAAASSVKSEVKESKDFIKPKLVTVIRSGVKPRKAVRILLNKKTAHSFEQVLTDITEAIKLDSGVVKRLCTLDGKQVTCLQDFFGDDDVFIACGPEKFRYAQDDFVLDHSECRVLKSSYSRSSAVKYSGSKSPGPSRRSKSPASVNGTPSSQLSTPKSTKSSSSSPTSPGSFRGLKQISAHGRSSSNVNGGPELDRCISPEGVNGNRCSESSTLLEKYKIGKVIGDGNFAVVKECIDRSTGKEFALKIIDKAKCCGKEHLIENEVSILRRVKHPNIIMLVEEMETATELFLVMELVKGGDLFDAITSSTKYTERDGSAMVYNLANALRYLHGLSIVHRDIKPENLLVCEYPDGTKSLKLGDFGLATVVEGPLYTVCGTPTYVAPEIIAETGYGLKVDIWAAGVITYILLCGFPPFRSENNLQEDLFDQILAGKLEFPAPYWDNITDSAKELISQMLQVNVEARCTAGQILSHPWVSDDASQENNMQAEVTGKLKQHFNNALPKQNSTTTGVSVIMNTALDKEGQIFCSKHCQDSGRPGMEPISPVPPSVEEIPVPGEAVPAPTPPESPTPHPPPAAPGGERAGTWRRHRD

CN(C)Cc1cccc(Nc2ncc(Cl)c(-c3csc(C(=O)NN4CCOCC4)c3)n2)c1 [SKLB-D18, 4-(5-chloro-2-((3-((dimethylamino)methyl)phenyl)amino)pyrimidin-4-yl)-N-morpholinothiophene-2-carboxamide]
weight loss or adverse effects [1]: No significant weight loss or adverse effects
inhibition at 1 µM [2]: 55%
inhibition at 1 µM [3]: 45%
inhibition at 1 µM [4]: 43%
inhibition at 1 µM [5]: -10%
inhibition at 1 µM [6]: 66%
inhibition at 1 µM [7]: 40%
inhibition at 1 µM [8]: 16%
inhibition at 1 µM [9]: 26%
inhibition at 1 µM [10]: 51%
inhibition at 1 µM [11]: 57%
inhibition at 1 µM [12]: 67%
inhibition at 1 µM [13]: 17%
inhibition at 1 µM [14]: 20%
inhibition at 1 µM [15]: 23%
inhibition at 1 µM [16]: 13%
inhibition at 1 µM [17]: 9%
inhibition at 1 µM [18]: 52%
inhibition at 1 µM [19]: 14%
inhibition at 1 µM [20]: 64%
inhibition at 1 µM [21]: 69%
inhibition at 1 µM [22]: 2%
inhibition at 1 µM [23]: -7%
inhibition at 1 µM [24]: 63%
inhibition at 1 µM [25]: 58%
inhibition at 1 µM [26]: 55%
inhibition at 1 µM [27]: 27%
inhibition at 1 µM [28]: 67%
inhibition at 1 µM [29]: 16%
inhibition at 1 µM [30]: -2%
inhibition at 1 µM [31]: 65%
inhibition at 1 µM [32]: 9%
